Patent US6825178B1, “Methods and products for treating pseudomonas infection” (The Brigham and Women's Hospital, Inc., priority 1996, dated 2004)
Marks after values point to notes of the source that are not given here.

Assays:
[1] = tested on: transformed human airway epithelial cells (CFT1-LCFSN line); assay: Inhibition of internalization of P. aeruginosa strain 324 into CFT1-LCFSN cells (bacterial ingestion assay); type: cell-based; settings: strain 324, CFT1-LCFSN cells
Description: Cell lines. CFT1-LCFSN cells, carrying a retrovirally introduced chromosomal copy of the wild-type human CFTR gene were kindly provided by J. Olsen, J. Yankaskis and L. Johnson from The University of North Carolina, Chapel Hill, N.C.. The cell line parental to CFT1-LCFSN is designated CFT1; it is a line of human papilloma virus 18 E6/E7 transformed bronchial epithelial cells derived from a CF patient homozygous for ΔF508 CFTR. The CFT1-LCFSN cells have normal chloride ion conductance. CFT1-ΔF508 cells are derived from CFT1 cells and carry a cDNA introduced by a retrovirus vector that encodes the ΔF508 mutant form of CFTR. Cells were grown in supplemented F-12 medium as described in 5% CO2 at 37° C.
Bacterial strains. P. aeruginosa strains used include PAO1, a well-characterized laboratory strain, and strains 149 and 324, non-mucoid, LPS-smooth clinical isolates of P. aeruginosa from CF patients early in the course of infection. Fresh cultures of P. aeruginosa grown overnight at 37° C. on a tryptic soy agar plate were suspended in supplemented medium to prepare the bacterial inoculum. Approximately 10^6 cfu of the bacterial inoculum were added per well of 10^5, epithelial cells.
Reagents for inhibition of ingestion assays. Membranes were prepared from C127 cells as described by O'Riordan et al.. Membranes were suspended in 150 mM NaCl, 50 mM Tris, pH 7.5 and 1 mM EDTA and added at the indicated concentration to suspensions of P. aeruginosa strains prior to adding this mixture to CFT1-LCFSN cells to measure bacterial uptake. Membranes from CEM/VbI cells expressing P-glycoprotein and membranes from control CEM cells lacking P-glycoprotein were obtained from James Croop of Harvard Medical School. Purified (˜85%) recombinant CFTR was obtained from Genzyme Corp., and prepared as described. The protein was solubilized in 100 mM NaCl, 10 mM Tris, pH 8.0, 2 mM di-thio-threitol and 0.1% sodium dodecyl sulfate. Monoclonal antibodies raised to synthetic peptides corresponding to the first (MAb CF3) and fourth (MAb CF4) predicted extracellular domains of CFTR, as well as a MAb specific to a peptide representing the carboxy-terminal 14 amino acids of mature CFTR (MAb CF2) were provided by Dr. George Banting, University of Bristol, Bristol, UK [12]. Synthetic peptides were obtained from Chiron Mimetopes, San Diego, Calif. Peptide GRIIASYDPDNKEER (15 amino acids) (SEQ.ID.NO. 3) represents amino acids 103-117 of mature CFTR, peptide […] (31 amino acids) (SEQ.ID.NO. 4) represents amino acids 881-911 of mature CFTR. Peptides were made up as a stock solution in F-12 medium containing 1 μM/μl based on the purity reported by the manufacturer. Peptides were diluted in F-12 tissue culture medium prior to use in assays.
Bacterial ingestion assay. Cells were released from monolayers in tissue culture flasks by 5 min. of incubation with trypsin-versene mixture (BioWhitaker, Walkersville, Md.), washed, counted and seeded into 96-well tissue culture plates at 10^5 cells/well in supplemented F-12 medium and incubated at 37° C. in 5% CO2. Fresh cultures of P. aeruginosa grown overnight at 37° C. on a tryptic soy agar plate were suspended in supplemented F-12 medium to prepare the bacterial inoculum. Then 10^6 colony forming units (cfu) of the bacterial inoculum were added per well of 10^5 epithelial cells. Bacteria were allowed to invade the epithelial cells for 3 to 4 hours at 37° C., after which nonadherent bacteria were removed by washing. The remaining steps of the assay and the steps involved in the controls have previously been described. Three to 9 replicates were obtained per point, and analyzed using analysis of variance (ANOVA) and the Fisher PLSD statistic to determine pairwise differences. […]

[2] = tested on: P. aeruginosa strain PAO1; assay: Neonatal mouse model of infection, CFTR peptide added to bacterial inoculum; type: in vivo; settings: 7-day old mice, 10 nM peptide added to PAO1 inoculum, intranasal, 24 hours after infection; for Median cfu (10th-90th percentile cfu) P. aeruginosa internalized per mg. lung tissue: gentamicin-exclusion
Protocol: Neonatal mouse model of infection. Seven-day old neonatal Balb/c mice were infected with ˜10^8 cfu of stain PAO1 delivered intranasally as described, with the addition of 10 nM of a synthetic peptide corresponding to either the first or fourth extracellular domains of CFTR to the bacterial inoculum. Twenty-four hours later 7 animals were killed, right and left lungs removed, weighed and dispersed into single cell suspensions by grinding through a fine-mesh wire screen. An aliquot was removed, Triton X-100 added to a final concentration of 0.5% to release intracellular bacteria and the total cfu of bacteria present in each lung determined. The remaining portion of the lung cell suspension was treated with 300 μg gentamicin/ml for 60 minutes to kill extracellular P. aeruginosa. The cells were then pelleted in a centrifuge (400×g, 10 minutes), washed twice in RPMI medium, and resuspended in 200 μl of 0.5% Triton X-100 to release intracellular bacteria that survived the gentamicin treatment. These suspensions were diluted and plated for bacterial enumeration. The cfu per milligram lung weight was calculated and differences among groups analyzed by nonparametric statistics (Mann-Whitney U test) due to outliers in some groups.
To confirm that binding and internalization of P. aeruginosa by the first predicted extracellular domain of CFTR is important in resistance to lung infection, 7-day old Balb/c mice were nasally inoculated with 10^8 cfu of P. aeruginosa stain PAO1 mixed with either 10 nM of the peptide corresponding to the first or fourth predicted extracellular domains of CFTR and the course of bacterial infection was followed for over 24 hours. […] Thus, inhibiting P. aeruginosa internalization by blocking the bacterial interaction with CFTR in the lung leads to increased bacterial counts in this tissue, indicating an important mechanism for clearance of P. aeruginosa from the lung following inhalation of these organisms.

[3] = listed as First extracellular domain
[4] = listed as first extracellular domain peptide
[5] = listed as Fourth extracellular domain

Sequence	Mean cfu of P. aeruginosa internalized (standard deviation) ([1]; 0.001 nanomoles peptide)	Mean cfu of P. aeruginosa internalized (standard deviation) ([1]; 0.01 nanomoles peptide)	Mean cfu of P. aeruginosa internalized (standard deviation) ([1]; 0.1 nanomoles peptide)	Mean cfu of P. aeruginosa internalized (standard deviation) ([1]; 1 nanomoles peptide)	Median cfu (10th-90th percentile cfu) P. aeruginosa internalized per mg. lung tissue [2, 3]	Median cfu (10th-90th percentile cfu) P. aeruginosa internalized per mg. lung tissue [2, 4]	Median cfu (10th-90th percentile cfu) P. aeruginosa total per mg. lung tissue [2, 3]	Median cfu (10th-90th percentile cfu) P. aeruginosa total per mg. lung tissue [2, 4]	Median cfu (10th-90th percentile cfu) P. aeruginosa internalized per mg. lung tissue [2, 5]	Median cfu (10th-90th percentile cfu) P. aeruginosa internalized per mg. lung tissue ([2]; listed as fourth extracellular domain peptide)	Median cfu (10th-90th percentile cfu) P. aeruginosa total per mg. lung tissue [2, 5]	Median cfu (10th-90th percentile cfu) P. aeruginosa total per mg. lung tissue ([2]; listed as fourth predicted extracellular domain)
GRIIASYDPDNKEER (listed as Homo Sapiens) [First domain]	1.3938 × 10^5 (7.6735 × 10^3) cfu	1.405 × 10^5 (9.4323 × 10^3) cfu	7.232 × 10^4 (5.6982 × 10^3)^a cfu	1.462 × 10^4 (2.6955 × 10^3)^a cfu	0 (0-278) cfu per mg lung tissue	virtually no internalized P. aeruginosa	152,419 (37,860-519,612) cfu per mg lung tissue	~1.5×10^5 cfu per mg lung tissue	–	–	–	–
LWLLGNTPLQDKGNSTHSRNNSYAVIITSTS (listed as Homo Sapiens) [Fourth domain, reference compound]	1.3275 × 10^5 (9.408 × 10^3) cfu	1.412 × 10^5 (7.1986 × 10^3) cfu	1.416 × 10^5 (1.195 × 10^4) cfu	1.42 × 10^5 (1.746 × 10^4) cfu	–	–	–	–	13,246 (3,578-49,558) cfu per mg lung tissue	> 10^4 cfu per mg lung tissue	20,450 (4,000-61,008) cfu per mg lung tissue	~2×10^4 cfu per mg lung tissue
